Like-named read-outs stand apart in the source and are kept apart here.

Usually EC50 stands for the concentration that produces a half-maximal response.

Type in all cases: cell-based
The test system of one assay is RSV A2. Put plainly: RSV NHBE EC50 (RSV A2 antiviral assay in normal human bronchial epithelial cells). As to conditions: read-out: RSV NHBE EC50.
The next assay concerns HRV16. Put plainly: HRV16 HELA EC50 (cytopathic effect in H1-HeLa cells). In outline:
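H1-HeLa cells seeded one day before, given 3-fold serial compound dilutions in triplicate just prior to infection with pre-titrated virus. Incubated 96 h at 33 °C/5% CO2; protection from cytopathic effect read as viability by CellTiter-Glo luminescence, normalised to infected untreated (0%) and uninfected (100%) controls.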

The next assay has as its system RSV strain A2. Put plainly: RSV HEp-2 EC50 (infectious cytopathic cell protection assay). As to conditions: read-out: RSV HEp-2 EC50. In outline:
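HEp-2 cells mixed with titered RSV A2 at 50,000 cells/ml were added to plates holding 3-fold serial compound dilutions in DMSO, then incubated 4 days at 37° C. Cytoprotection was read as cell viability by CellTiter-Glo luminescence and converted to percent inhibition against 0% and 100% inhibition controls.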

Another assay concerns DENV2 replicon. In words: DENV-2 Huh-7 Rep EC50 (replicon luminescence). As to conditions: read-out: DENV-2 Huh-7 Rep EC50. In outline:
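Huh-7 cells carrying a DENV2 replicon, 5,000 cells/well, were incubated with dosed compounds for 48 h at 37° C. EnduRen live-cell substrate was added 1.5 h before luminescence reading. EC50 came from dose-response against DMSO-only wells.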

[1] abbreviates: human respiratory syncytial virus, 96 h, NHBE cells, RSV A2, 4 days.
[2] abbreviates: H1-HeLa cells, 96 h, 33° C.; read-out: HRV16 HELA EC50.
Setting [3] is: human respiratory syncytial virus, 96 h, HEp-2 cells, RSV A2, 4 days.
Where [4] appears, read: Dengue virus, DENV2, Huh-7, 48 h.
The mark [5] stands for this setting: human respiratory syncytial virus, NHBE, 96 h.
Where [6] appears, read: 96 h, read-out: HRV16 HELA EC50.
[7] abbreviates: human respiratory syncytial virus, HEp-2, 96 h.
Where [8] appears, read: human respiratory syncytial virus, NHBE, 96 h, NHBE cells, RSV A2, 4 days.
[9] abbreviates: 96 h, H1-HeLa cells, 33° C., read-out: HRV16 HELA EC50.
Setting [10] is: human respiratory syncytial virus, HEp-2, 96 h, HEp-2 cells, RSV A2, 4 days.
The mark [11] stands for this setting: Dengue virus, DENV2, Huh-7, 48 h, Huh-7 replicon cells, 48 hours.

In the case of `C[C@H](NP(=O)(OCC(F)(F)F)OC[C@@]1(C#N)O[C@@H](c2ccc3c(N)ncnn23)[C@H](O)[C@@H]1O)C(=O)OC1CCCCC1` (stereo partly drawn) [Example 201, cyclohexyl ((((2R,3S,4R,5S)-5-(4-aminopyrrolo[2,1-f][1,2,4]triazin-7-yl)-2-cyano-3,4-dihydroxytetrahydrofuran-2-yl)methoxy)(2,2,2-trifluoroethoxy)phosphoryl)-L-alaninate], the 50% effective concentration (EC50) with RSV A2 (setting [1]) is 3.1 µM; in the assay with HRV16 (setting [2]) it was 10.3 µM; in the assay on RSV strain A2 (setting [3]), 2.52 µM; with DENV2 replicon (setting [4]), greater than 50 µM.

Turning to `C[C@H](NP(=O)(N[C@@H](C)C(=O)OCC(C)(C)C)OC[C@@]1(C#N)O[C@@H](c2ccc3c(N)ncnn23)[C@H](O)[C@@H]1O)C(=O)OCC(C)(C)C` [Example 182], the EC50 with RSV A2 (setting [1]) is 2.09 µM; with HRV16 (setting [2]) it was 8.56 µM; in the assay with RSV strain A2 (setting [3]), 1.17 µM; in the assay with DENV2 replicon (setting [4]) it was greater than 50 µM.

As to `CCCCOC(=O)C1CCCN1P(=O)(OC[C@@]1(C#N)O[C@@H](c2ccc3c(N)ncnn23)[C@H](O)[C@@H]1O)Oc1ccccc1` (stereo in doubt) [Example 124, (2R)-butyl 1-((((2R,3S,4R,5S)-5-(4-aminopyrrolo[2,1-f][1,2,4]triazin-7-yl)-2-cyano-3,4-dihydroxytetrahydrofuran-2-yl)methoxy)(phenoxy)phosphoryl)pyrrolidine-2-carboxylate], the EC50 with RSV A2 (setting [5]) was greater than 5 µM; in the assay with HRV16 (setting [6]), greater than 86.4 µM; in the assay with RSV strain A2 (setting [7]), greater than 100 µM; in the assay with DENV2 replicon (setting [4]), greater than 100 µM.

Take `C[C@H](NP(=O)(OC[C@@]1(C#N)O[C@@H](c2ccc3c(N)ncnn23)[C@H](O)[C@@H]1O)Oc1ccccc1)C(=O)OC[C@H]1CC[C@H](C(F)(F)F)CC1` (mixture of isomers) [Example 26, ((1r,4S)-4-(trifluoromethyl)cyclohexyl)methyl ((((2R,3S,4R,5S)-5-(4-aminopyrrolo[2,1-f][1,2,4]triazin-7-yl)-2-cyano-3,4-dihydroxytetrahydrofuran-2-yl)methoxy)(phenoxy)phosphoryl)alaninate]: the EC50 with RSV A2 (setting [8]) worked out at 0.025 µM; in the assay on HRV16 (setting [9]), 0.669 µM; in the assay with RSV strain A2 (setting [10]), 0.334 µM; with DENV2 replicon (setting [11]), 44.3 µM.

On to `CCOC(=O)C1CCCN1P(=O)(OC[C@@]1(C#N)O[C@@H](c2ccc3c(N)ncnn23)[C@H](O)[C@@H]1O)Oc1ccccc1` (stereo in doubt) [Example 117, (2R)-ethyl 1-((((2R,3S,4R,5S)-5-(4-aminopyrrolo[2,1-f][1,2,4]triazin-7-yl)-2-cyano-3,4-dihydroxytetrahydrofuran-2-yl)methoxy)(phenoxy)phosphoryl)pyrrolidine-2-carboxylate], for which the half-maximal effective concentration (EC50) is greater than 5 µM in the assay with RSV A2 (setting [5]), greater than 100 µM in the assay on HRV16 (setting [6]), greater than 100 µM in the assay with RSV strain A2 (setting [7]) and greater than 100 µM with DENV2 replicon (setting [4]).

For the compound `CCC(CC)COC(=O)[C@H](CCCCNC(=O)OCc1ccccc1)NP(=O)(OC[C@@]1(C#N)O[C@@H](c2ccc3c(N)ncnn23)[C@H](O)[C@@H]1O)Oc1ccccc1` (stereo partly drawn) [Example 79, 2-ethylbutyl N2-((((2R,3S,4R,5S)-5-(4-aminopyrrolo[2,1-f][1,2,4]triazin-7-yl)-2-cyano-3,4-dihydroxytetrahydrofuran-2-yl)methoxy)(phenoxy)phosphoryl)-N6-((benzyloxy)carbonyl)-L-lysinate], the EC50 was greater than 5 µM with RSV A2 (setting [8]), greater than 34.8 µM with HRV16 (setting [9]), greater than 50 µM in the assay on RSV strain A2 (setting [10]) and 40.2 µM in the assay with DENV2 replicon (setting [11]).

On to `CC[C@H](NP(=O)(OC[C@@]1(C#N)O[C@@H](c2ccc3c(N)ncnn23)[C@H](O)[C@@H]1O)Oc1ccccc1)C(=O)OC1CCCC1` (single isomer, unassigned) [Example 111], for which the EC50 in the assay with RSV A2 (NHBE cells, RSV A2, 4 days) was greater than 1.48 µM; in the assay with HRV16 (setting [9]), 25.3 µM; with RSV strain A2 (HEp-2 cells, RSV A2, 4 days), 3.97 µM; with DENV2 replicon (setting [11]), greater than 50 µM.

Consider `CCC(CC)COC(=O)[C@H](CCCCN)NP(=O)(OC[C@@]1(C#N)O[C@@H](c2ccc3c(N)ncnn23)[C@H](O)[C@@H]1O)Oc1ccccc1` (mixture of isomers) [Example 91, (2S)-2-ethylbutyl 6-amino-2-(((((2R,3S,4R,5S)-5-(4-aminopyrrolo[2,1-f][1,2,4]triazin-7-yl)-2-cyano-3,4-dihydroxytetrahydrofuran-2-yl)methoxy)(phenoxy)phosphoryl)amino)hexanoate], for which the EC50 in the assay with RSV A2 (setting [8]) was greater than 5 µM; in the assay on HRV16 (setting [9]), greater than 50 µM; in the assay on RSV strain A2 (setting [10]) it was 12.1 µM; with DENV2 replicon (setting [11]), greater than 50 µM.

For the compound `C[C@H](NP(=O)(OC[C@@]1(C#N)O[C@@H](c2ccc3c(N)ncnn23)[C@H](O)[C@@H]1O)Oc1ccccc1)C(=O)OC1CCCN(CC(F)(F)F)CC1` (stereo partly drawn) [Example 204, 1-(2,2,2-trifluoroethyl)azepan-4-yl ((((2R,3S,4R,5S)-5-(4-aminopyrrolo[2,1-f][1,2,4]triazin-7-yl)-2-cyano-3,4-dihydroxytetrahydrofuran-2-yl)methoxy)(phenoxy)phosphoryl)alaninate], the concentration for a half-maximal effect (EC50) in the assay with RSV A2 (setting [8]) was 0.628 µM; in the assay with HRV16 (setting [9]), 1.38 µM; in the assay with RSV strain A2 (setting [10]) it was 0.463 µM; in the assay with DENV2 replicon (setting [11]), 27.5 µM.

Turning to `CC(C)OP1(=O)OC[C@@]2(C#N)O[C@@H](c3ccc4c(N)ncnn34)[C@H](O)[C@@H]2O1` (stereo partly drawn) [Example 163, (4aR,6S,7S,7aS)-6-(4-aminopyrrolo[2,1-f][1,2,4]triazin-7-yl)-7-hydroxy-2-isopropoxydihydro-4H-furo[3,2-d][1,3,2]dioxaphosphinine-4a(6H)-carbonitrile 2-oxide], the EC50 in the assay on RSV A2 (setting [1]) is 9.21 µM; in the assay on HRV16 (setting [2]), greater than 50 µM; in the assay on RSV strain A2 (setting [3]), 13.3 µM; with DENV2 replicon (setting [4]) it was greater than 50 µM.

Regarding `C[C@H](NP(=O)(OC[C@@]1(C#N)O[C@@H](c2ccc3c(N)ncnn23)[C@H](O)[C@@H]1O)Oc1ccccc1)C(=O)O[C@H]1CC[C@H](N)CC1` (stereo partly drawn) [Example 33, (1r,4S)-4-aminocyclohexyl ((((2R,3S,4R,5S)-5-(4-aminopyrrolo[2,1-f][1,2,4]triazin-7-yl)-2-cyano-3,4-dihydroxytetrahydrofuran-2-yl)methoxy)(phenoxy)phosphoryl)-L-alaninate], the concentration for a half-maximal effect (EC50) in the assay on RSV A2 (setting [8]) was 2.68 µM; in the assay on HRV16 (setting [9]), 27 µM; with RSV strain A2 (setting [10]), 1.91 µM; with DENV2 replicon (setting [11]), greater than 50 µM.

As to `CC[C@H](NP(=O)(OC[C@@]1(C#N)O[C@@H](c2ccc3c(N)ncnn23)[C@H](O)[C@@H]1O)Oc1ccccc1)C(=O)OC(C)C` (stereo partly drawn) [Example 87, (2S)-isopropyl 2-(((((2R,3S,4R,5S)-5-(4-aminopyrrolo[2,1-f][1,2,4]triazin-7-yl)-2-cyano-3,4-dihydroxytetrahydrofuran-2-yl)methoxy)(phenoxy)phosphoryl)amino)butanoate], the EC50 in the assay on RSV A2 (setting [8]) is 1.7 µM; in the assay with HRV16 (setting [9]), 6.71 µM; with RSV strain A2 (setting [10]), 1.34 µM; in the assay on DENV2 replicon (setting [11]), greater than 100 µM.

Consider `CCC(CC)COC(=O)[C@H](C)NP(=O)(N[C@@H](C)C(=O)OCC(C)(C)C)OC[C@@]1(C#N)O[C@@H](c2ccc3c(N)ncnn23)[C@H](O)[C@@H]1O` (stereo partly drawn) [Example 200, 2-ethylbutyl ((((2R,3S,4R,5S)-5-(4-aminopyrrolo[2,1-f][1,2,4]triazin-7-yl)-2-cyano-3,4-dihydroxytetrahydrofuran-2-yl)methoxy)(((S)-1-(neopentyloxy)-1-oxopropan-2-yl)amino)phosphoryl)-L-alaninate], for which the 50% effective concentration (EC50) in the assay on RSV A2 (setting [1]) was 0.125 µM; with HRV16 (setting [2]) it was 5.68 µM; in the assay on RSV strain A2 (setting [3]), 1.4 µM; with DENV2 replicon (setting [4]), greater than 50 µM.

Consider `CCCCCOC(=O)C[C@H](N[P@@](=O)(OC[C@@]1(C#N)O[C@@H](c2ccc3c(N)ncnn23)[C@H](O)[C@@H]1O)Oc1ccccc1)C(=O)OCCCCC` [Example 216], for which the EC50 in the assay on RSV A2 (NHBE cells, RSV A2, 4 days) is greater than 4.39 µM; in the assay with HRV16 (setting [2]) it was 32.8 µM; with RSV strain A2 (HEp-2 cells, RSV A2, 4 days) it was 4.23 µM; in the assay with DENV2 replicon (Huh-7 replicon cells, 48 hours), 33 µM.

Turning to `C[C@@H](NP(=O)(OC[C@@]1(C#N)O[C@@H](c2ccc3c(N)ncnn23)[C@H](O)[C@@H]1O)Oc1ccccc1)C(=O)OCC(C)(C)C` (stereo partly drawn) [Example 102, (2R)-neopentyl 2-(((((2R,3S,4R,5S)-5-(4-aminopyrrolo[2,1-f][1,2,4]triazin-7-yl)-2-cyano-3,4-dihydroxytetrahydrofuran-2-yl)methoxy)(phenoxy)phosphoryl)amino)propanoate], the EC50 in the assay with RSV A2 (setting [8]) is greater than 5 µM; with HRV16 (setting [9]), 16.7 µM; in the assay on RSV strain A2 (setting [10]), 9.95 µM; in the assay on DENV2 replicon (setting [11]) it was greater than 100 µM.

Source of the values: US20230295201A1 (Gilead Sciences, Inc., priority 2020, published 2023).
